Target: T1, mushroom tyrosinase (Agaricus bisporus, UniProt C7FF04)
Test: Mushroom tyrosinase inhibition assay (L-DOPA, dopachrome at 492 nm)
Type: biochemical
Parameters: purchased Sigma Chemical Co. USA
Conditions: Con: as-synthesized, before plasma treatment; cell-free; mean ± SD; read-out: Tyrosinase inhibitory activity IC50 (converted)
Experimental: To determine the action of ED and PAED, we checked the mushroom tyrosinase inhibitory activity in a cell-free environment. […] Moreover, after plasma treatment for different time intervals, we observed that inhibition activity of 4a, 4b, 4d and 6a was improved more as compared to without treatment. […] However, we observed the highest relative improvement in IC50 value of compound 4b among all ED compounds at 10 min plasma treatment. […] Therefore, we used the 4b and 6a compounds for further investigations, based on the decrease in IC50 value to a global minimum of the experiment after plasma treatment.
Target sequence in this assay (C7FF04 1-392): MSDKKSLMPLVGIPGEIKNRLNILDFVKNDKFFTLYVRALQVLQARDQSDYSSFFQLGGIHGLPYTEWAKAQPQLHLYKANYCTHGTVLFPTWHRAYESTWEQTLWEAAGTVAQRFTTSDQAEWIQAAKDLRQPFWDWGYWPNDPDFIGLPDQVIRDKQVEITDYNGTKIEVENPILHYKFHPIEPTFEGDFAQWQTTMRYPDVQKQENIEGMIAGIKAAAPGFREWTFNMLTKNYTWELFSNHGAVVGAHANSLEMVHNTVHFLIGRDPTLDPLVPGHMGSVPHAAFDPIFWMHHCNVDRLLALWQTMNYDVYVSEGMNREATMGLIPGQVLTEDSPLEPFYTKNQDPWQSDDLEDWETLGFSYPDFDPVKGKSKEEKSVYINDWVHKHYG
The mushroom tyrosinase was used for in vitro bioassays as described previously with some modifications. Briefly, 140 μl of phosphate buffer (20 mM, pH 6.8), 20 μl of mushroom tyrosinase (30 U/ml), and 20 μl of the inhibitor solution were placed in the wells of a 96-well plate. After pre-incubation for 10 min at room temperature, 20 μl of L-DOPA (3,4-dihydroxyphenylalanine) (0.85 mM) was added and the plate was further incubated at 25 °C for 20 min. Subsequently the absorbance of dopachrome was measured at 492 nm using a micro plate reader (OPTI Max, Tunable). Kojic acid was used as a reference inhibitor. The extent of inhibition by the test compounds was expressed as the […] necessary to achieve 50% inhibition (IC50). Each concentration was analyzed in three independent experiments run in triplicate. The IC50 values were determined by the data analysis and graphing software, Origin.

First: C=CCc1ccc(OC(=O)COC(=O)/C=C/c2ccc(Cl)cc2)c(OC)c1 [6b, 2-[2-methoxy-4-(prop-2-en-1-yl)phenoxy]-2-oxoethyl(2E)-3-(4-chloroyphenyl)prop-2-enoate]
Second: C=CCc1ccc(OC(=O)COC(=O)c2cc(O)cc(O)c2)c(OC)c1 [4e, 2-[2-methoxy-4-(prop-2-en-1-yl)phenoxy]-2-oxoethyl 3,5-dihydroxybenzoate]
The IC50 of the first is 2.9-fold lower: 18.1 µM for the first, 53 µM for the second.

Same assay, conditions: compound after 3 min N2 APPJ plasma treatment; mean ± SD; read-out: Tyrosinase inhibitory activity IC50 (converted)

Compared with `C=CCc1ccc(OC(=O)COC(=O)/C=C/c2ccc(Cl)cc2)c(OC)c1` [6b, 2-[2-methoxy-4-(prop-2-en-1-yl)phenoxy]-2-oxoethyl(2E)-3-(4-chloroyphenyl)prop-2-enoate], `C=CCc1ccc(OC(=O)COC(=O)c2cc(O)cc(O)c2)c(OC)c1` [4e, 2-[2-methoxy-4-(prop-2-en-1-yl)phenoxy]-2-oxoethyl 3,5-dihydroxybenzoate] is 2.5-fold higher in IC50: 85.3 µM for the first, 215 µM for the second.

Same assay, conditions: compound after 5 min N2 APPJ plasma treatment; mean ± SD; read-out: Tyrosinase inhibitory activity IC50 (converted)

Compared with `C=CCc1ccc(OC(=O)COC(=O)/C=C/c2ccc(Cl)cc2)c(OC)c1` [6b, 2-[2-methoxy-4-(prop-2-en-1-yl)phenoxy]-2-oxoethyl(2E)-3-(4-chloroyphenyl)prop-2-enoate], `C=CCc1ccc(OC(=O)COC(=O)c2cc(O)cc(O)c2)c(OC)c1` [4e, 2-[2-methoxy-4-(prop-2-en-1-yl)phenoxy]-2-oxoethyl 3,5-dihydroxybenzoate] is 2-fold higher in IC50: 103 µM for the first, 201 µM for the second.

Same assay, conditions: compound after 10 min N2 APPJ plasma treatment; mean ± SD; read-out: Tyrosinase inhibitory activity IC50 (converted)

`C=CCc1ccc(OC(=O)COC(=O)/C=C/c2ccc(Cl)cc2)c(OC)c1` [6b, 2-[2-methoxy-4-(prop-2-en-1-yl)phenoxy]-2-oxoethyl(2E)-3-(4-chloroyphenyl)prop-2-enoate] and `C=CCc1ccc(OC(=O)COC(=O)c2cc(O)cc(O)c2)c(OC)c1` [4e, 2-[2-methoxy-4-(prop-2-en-1-yl)phenoxy]-2-oxoethyl 3,5-dihydroxybenzoate] are within 1.5-fold of each other in IC50: 142 µM for the first, 156 µM for the second.

Test system: not given
Test: not given
Conditions: not given

Compared with `C=CCc1ccc(OC(=O)COC(=O)/C=C/c2ccc(Cl)cc2)c(OC)c1` [6b, 2-[2-methoxy-4-(prop-2-en-1-yl)phenoxy]-2-oxoethyl(2E)-3-(4-chloroyphenyl)prop-2-enoate], `C=CCc1ccc(OC(=O)COC(=O)c2cc(O)cc(O)c2)c(OC)c1` [4e, 2-[2-methoxy-4-(prop-2-en-1-yl)phenoxy]-2-oxoethyl 3,5-dihydroxybenzoate] is higher in melting point: 86 to 88 °C for the first, 107 to 109 °C for the second.

Test system: B16F10 cells
Test: Intracellular melanin content measurement
Type: cell-based, murine
Conditions: as-synthesized ED; no α-MSH; concentration not given
Experimental: Melanoma (1.5 × 10^5) cells were seeded in cell culture plates and allowed to attach for 24 hr. Then each eugenol derivative was added and tested separately for melanin activation after 24 hr of incubation. After incubation, cells were detached using trypsin/EDTA and centrifuged at 1000 rpm for 5 min to collect the cell pellets. The cell pellets were solubilized in 1N NaOH at 60 °C for 1 hr. The melanin content was measured spectrophotometrically at 405 nm wavelength using a microplate reader (BioTek, synergy HT)[56]. […] Plasma-treated and non-plasma-treated ED (4b and 6a) were added to the cells, pre-incubated with or without α-MSH (100 nM) for a further 24 hr and melanin content was assayed as described above. Kojic acid can inhibit and α-MSH can stimulate the melanin in the cells, therefore we used them as negative and positive controls.

Going from `C=CCc1ccc(OC(=O)COC(=O)/C=C/c2ccc(Cl)cc2)c(OC)c1` [6b, 2-[2-methoxy-4-(prop-2-en-1-yl)phenoxy]-2-oxoethyl(2E)-3-(4-chloroyphenyl)prop-2-enoate] to `C=CCc1ccc(OC(=O)COC(=O)c2cc(O)cc(O)c2)c(OC)c1` [4e, 2-[2-methoxy-4-(prop-2-en-1-yl)phenoxy]-2-oxoethyl 3,5-dihydroxybenzoate], the “melanin, % of control (normalized to 100%)” value falls from 119% to 115%.

Same assay, conditions: with or without plasma treatment, presence or absence of α-MSH (Fig. 10)

With `C=CCc1ccc(OC(=O)COC(=O)/C=C/c2ccc(Cl)cc2)c(OC)c1` [6b, 2-[2-methoxy-4-(prop-2-en-1-yl)phenoxy]-2-oxoethyl(2E)-3-(4-chloroyphenyl)prop-2-enoate] the “melanin stimulation (in words)” value was “Melanin stimulation was observed”.

Target: T1, mushroom tyrosinase
Test: Circular dichroism analysis of the secondary structure of mushroom tyrosinase
Conditions: tyrosinase + as-synthesized compound (0 min plasma), 0.1 mM; enzyme alone 7
Experimental: The structural changes in tyrosinase after incubation with ED and PAED were plotted in Fig. 5. […] We observed that the control tyrosinase enzyme has 16% α-helix, 33% β-sheets, 7% turn, and 44% random coil. After the interaction with 4a, the amount of α-helix changed to 15% and β-sheets changed to 35%. On the other hand, after the plasma treatment of 4a the amount of α-helix changed to 17% and β-sheets changed to 31%. While, after interacting with 4b, the amount of α-helix is 16.0%, β-sheets 29%, turn 10%, and random coil is 45.0%. However, plasma-activated 4b interacts differently with tyrosinase enzyme, showing 16% α-helix, 33% β-sheets, 6% turn, and 45% random coil. When 6a ED interacted with tyrosinase enzyme, we observed 20% α-helix, 25% β-sheets, 11.0% turn, and 44% random coil. However, 6a PAED interacts with tyrosinase enzyme, the α-helix changed to 19%, β-sheets 28%, turn 9%, and random coil 44%. […] To obtain further detail on the interaction of the ED with tyrosinase enzyme, we studied the molecular docking. For the CD spectroscopic studies[65][66][67] a J-815 spectrophotometer (Jasco, Japan) was used, equipped with a Peltier system that controlled the temperature. (1S)-(+)-10-camphorsulfonic acid (Aldrich, Milwaukee, WI) with a molar extinction coefficient of 34.5 M/cm at 285 nm and a 2.36 M/cm molar ellipticity (θ) at 295 nm was used for the CD calibrations. The samples were pre-equilibrated at the desired temperature for 15 min, and the scan speed was fixed for adaptative sampling (error F 0.01) with a response time of 1 sec and a 1 nm bandwidth. The secondary structure of the mushroom tyrosinase was monitored by using a 1.0 cm path length cuvette. The mushroom tyrosinase (0.2 mg/ml) was prepared in phosphate buffer (20 mM) at pH 6.8 for CD analysis. We used the 0.1 mM concentration of all derivatives in 1 ml buffer solution, with or without 10 min plasma treatment. All spectra were collected in triplicate from 200 to 250 nm and the background was corrected against the buffer (blank). The percentages of secondary structures of proteins were calculated using inbuilt Jasco software.
Target sequence in this assay (C7FF04 2-392): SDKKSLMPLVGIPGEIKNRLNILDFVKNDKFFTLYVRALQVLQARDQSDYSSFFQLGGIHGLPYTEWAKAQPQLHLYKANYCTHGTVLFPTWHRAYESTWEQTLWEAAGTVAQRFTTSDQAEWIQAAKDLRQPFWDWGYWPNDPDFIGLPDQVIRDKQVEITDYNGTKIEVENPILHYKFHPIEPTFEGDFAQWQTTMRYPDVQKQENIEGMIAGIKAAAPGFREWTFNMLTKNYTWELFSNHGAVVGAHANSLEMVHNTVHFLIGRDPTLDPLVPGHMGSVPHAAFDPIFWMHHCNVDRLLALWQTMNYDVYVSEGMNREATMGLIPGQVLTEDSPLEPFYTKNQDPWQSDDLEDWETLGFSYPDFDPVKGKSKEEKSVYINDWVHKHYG

First: C=CCc1ccc(OC(=O)COC(=O)/C=C/c2ccc(Cl)cc2)c(OC)c1 [6b, 2-[2-methoxy-4-(prop-2-en-1-yl)phenoxy]-2-oxoethyl(2E)-3-(4-chloroyphenyl)prop-2-enoate]
Second: C=CCc1ccc(OC(=O)COC(=O)c2cc(O)cc(O)c2)c(OC)c1 [4e, 2-[2-methoxy-4-(prop-2-en-1-yl)phenoxy]-2-oxoethyl 3,5-dihydroxybenzoate]
The “Turn % of tyrosinase” value of the first is lower: 3% for the first, 6% for the second.

Same assay, conditions: tyrosinase + as-synthesized compound (0 min plasma), 0.1 mM; enzyme alone 16

`C=CCc1ccc(OC(=O)COC(=O)/C=C/c2ccc(Cl)cc2)c(OC)c1` [6b, 2-[2-methoxy-4-(prop-2-en-1-yl)phenoxy]-2-oxoethyl(2E)-3-(4-chloroyphenyl)prop-2-enoate] and `C=CCc1ccc(OC(=O)COC(=O)c2cc(O)cc(O)c2)c(OC)c1` [4e, 2-[2-methoxy-4-(prop-2-en-1-yl)phenoxy]-2-oxoethyl 3,5-dihydroxybenzoate] are the same in “α-helix % of tyrosinase” value: 15% for the first, 15% for the second.

Same assay, conditions: tyrosinase + as-synthesized compound (0 min plasma), 0.1 mM; enzyme alone 33

Going from `C=CCc1ccc(OC(=O)COC(=O)/C=C/c2ccc(Cl)cc2)c(OC)c1` [6b, 2-[2-methoxy-4-(prop-2-en-1-yl)phenoxy]-2-oxoethyl(2E)-3-(4-chloroyphenyl)prop-2-enoate] to `C=CCc1ccc(OC(=O)COC(=O)c2cc(O)cc(O)c2)c(OC)c1` [4e, 2-[2-methoxy-4-(prop-2-en-1-yl)phenoxy]-2-oxoethyl 3,5-dihydroxybenzoate], the “β-sheet % of tyrosinase” value falls from 37% to 33%.

Same assay, conditions: tyrosinase + as-synthesized compound (0 min plasma), 0.1 mM; enzyme alone 44

Going from `C=CCc1ccc(OC(=O)COC(=O)/C=C/c2ccc(Cl)cc2)c(OC)c1` [6b, 2-[2-methoxy-4-(prop-2-en-1-yl)phenoxy]-2-oxoethyl(2E)-3-(4-chloroyphenyl)prop-2-enoate] to `C=CCc1ccc(OC(=O)COC(=O)c2cc(O)cc(O)c2)c(OC)c1` [4e, 2-[2-methoxy-4-(prop-2-en-1-yl)phenoxy]-2-oxoethyl 3,5-dihydroxybenzoate], the “Random coil % of tyrosinase” value rises from 45% to 46%.
